How the values were obtained:
SIK2 [1] = target: T1, SIK2 (Homo sapiens, UniProt Q9H0K1); test: SIK2 Enzymatic Assay Version 1 (ADP Glo); assay type: biochemical; settings: enzyme 0.6 nM, 160 μM ATP and 140 μM HDAC5tide (each 2× final concentration); 30 minutes pre-incubation, 4 hours; ADPGlo luminescence; read-out: SIK2 ADP Glo IC50 (μM) (Test Example 1)
Method in brief: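 Kinase activity read as ADP production by ADP-Glo luminescence, all steps at room temperature. Compound and SIK2 (0.6 nM, a 2× concentration) were preincubated 30 min; ATP-only wells lacking peptide were the negative control; depletion 40 min, detection ≥30 min.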

SIK2 [2] = target: T1, SIK2; test: SIK2 Enzymatic Assay High Version 2 (High ATP); assay type: biochemical
Method in brief: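 At room temperature, enzyme (6 nM, 2× final) was preincubated with compound for 30 min, then 6 mM ATP and 400 μM HDAC5tide (both 2× final) were added for 2 h. ADP formed was measured by ADP-Glo Max (2 h reagent, 1 h detection) using luminescence.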

T1 sequence (Q9H0K1 whole entry, species assumed): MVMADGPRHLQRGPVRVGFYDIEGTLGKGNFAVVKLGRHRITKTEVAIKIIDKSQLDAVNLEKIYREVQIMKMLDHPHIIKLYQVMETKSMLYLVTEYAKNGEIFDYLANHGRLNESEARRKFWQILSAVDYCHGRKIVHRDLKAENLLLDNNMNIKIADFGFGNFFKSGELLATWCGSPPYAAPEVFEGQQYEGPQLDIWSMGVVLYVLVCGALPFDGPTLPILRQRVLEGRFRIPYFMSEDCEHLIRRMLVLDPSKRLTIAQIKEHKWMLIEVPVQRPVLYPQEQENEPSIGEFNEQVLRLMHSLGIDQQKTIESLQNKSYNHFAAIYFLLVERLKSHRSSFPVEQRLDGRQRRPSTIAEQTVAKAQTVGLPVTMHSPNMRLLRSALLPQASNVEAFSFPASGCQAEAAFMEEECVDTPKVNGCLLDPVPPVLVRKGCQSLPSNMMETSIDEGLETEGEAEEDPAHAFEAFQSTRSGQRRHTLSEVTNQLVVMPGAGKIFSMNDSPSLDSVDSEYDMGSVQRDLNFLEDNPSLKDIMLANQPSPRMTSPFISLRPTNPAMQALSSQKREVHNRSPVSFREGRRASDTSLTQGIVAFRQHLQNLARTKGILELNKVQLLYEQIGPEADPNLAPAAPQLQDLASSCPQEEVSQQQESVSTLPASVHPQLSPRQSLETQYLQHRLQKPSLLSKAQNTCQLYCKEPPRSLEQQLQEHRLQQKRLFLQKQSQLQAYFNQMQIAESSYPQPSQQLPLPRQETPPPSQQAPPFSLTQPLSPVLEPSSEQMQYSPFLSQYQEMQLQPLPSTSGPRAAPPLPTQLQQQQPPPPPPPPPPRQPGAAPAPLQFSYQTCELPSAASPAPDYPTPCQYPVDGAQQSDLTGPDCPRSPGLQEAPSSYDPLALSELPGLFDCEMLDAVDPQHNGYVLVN

Compound | IC50 (SIK2 [1]) [µM] | IC50 (SIK2 [2]) [nM]
N#Cc1cc(-c2ccn3nc(NC(=O)C4CC4)cc3c2)c(OCC(O)(C(F)(F)F)C(F)(F)F)cn1 [Example 99, N-[5-[2-cyano-5-[3,3,3-trifluoro-2-hydroxy-2-(trifluoromethyl)propoxy]-4-pyridyl]pyrazolo[1,5-a]pyridin-2-yl]cyclopropanecarboxamide] | 0.00295 | 37.6
N#Cc1ccc(OC[C@H]2CNCCO2)c(-c2ccn3nc(NC(=O)C4CC4)cc3c2)c1 [Example 101, N-[5-[5-cyano-2-[[(2R)-morpholin-2-yl]methoxy]phenyl]pyrazolo[1,5-a]pyridin-2-yl]cyclopropanecarboxamide] | 0.00263 | 21.9
CC1(C)CNC[C@H](COc2ccc(C#N)cc2-c2ccn3nc(NC(=O)C4CC4)cc3c2)O1 [Example 102, N-[5-[5-cyano-2-[[(2R)-6,6-dimethylmorpholin-2-yl]methoxy]phenyl]pyrazolo[1,5-a]pyridin-2-yl]cyclopropanecarboxamide] | 0.000413 | < 0.838
N#Cc1ccc(OC[C@@H]2CNCCO2)c(-c2ccn3nc(NC(=O)C4CC4)cc3c2)c1 [Example 103, N-[5-[5-cyano-2-[[(2S)-morpholin-2-yl]methoxy]phenyl]pyrazolo[1,5-a]pyridin-2-yl]cyclopropanecarboxamide] | 0.00362 | 34.5
CC1(C)CNC[C@@H](COc2ccc(C#N)cc2-c2ccn3nc(NC(=O)C4CC4)cc3c2)O1 [Example 104, N-[5-[5-cyano-2-[[(2S)-6,6-dimethylmorpholin-2-yl]methoxy]phenyl]pyrazolo[1,5-a]pyridin-2-yl]cyclopropanecarboxamide] | 0.00588 | 31
CN1CC[C@@H](COc2cnc(C#N)cc2-c2ccn3nc(Nc4ccncc4)cc3c2)C1 [Example 105, 5-[[(3R)-1-methylpyrrolidin-3-yl]methoxy]-4-[2-(4-pyridylamino)pyrazolo[1,5-a]pyridin-5-yl]pyridine-2-carbonitrile] | 0.00951 | 203
CN1CC[C@@H](COc2cnc(C#N)cc2-c2ccn3nc(Nc4ccccc4)cc3c2)C1 [Example 106, 4-(2-anilinopyrazolo[1,5-a]pyridin-5-yl)-5-[[(3R)-1-methylpyrrolidin-3-yl]methoxy]pyridine-2-carbonitrile] | 0.00338 | 48.5
CN1CC[C@@H](COc2cnc(C#N)cc2-c2ccn3nc(Nc4ccccn4)cc3c2)C1 [Example 107, 5-[[(3R)-1-methylpyrrolidin-3-yl]methoxy]-4-[2-(2-pyridylamino)pyrazolo[1,5-a]pyridin-5-yl]pyridine-2-carbonitrile] | 0.0022 | 40.1
Cc1cc(-c2ccn3nc(Nc4ccn(C)n4)cc3c2)c(OC[C@@H]2CNCCO2)cn1 [Example 129, 5-[2-methyl-5-[[(2S)-morpholin-2-yl]methoxy]-4-pyridyl]-N-(1-methylpyrazol-3-yl)pyrazolo[1,5-a]pyridin-2-amine] | 0.000657 | 8.28
Cc1cc(-c2ccn3nc(NC(=O)C4CC4)cc3c2)c(O[C@H]2C[C@H]3COC[C@@H](C2)N3)cn1 [Example 136, endo-N-(5-(5-(((1R,5S,7s)-3-oxa-9-azabicyclo[3.3.1]nonan-7-yl)oxy)-2-methylpyridin-4-yl)pyrazolo[1,5-a]pyridin-2-yl)cyclopropanecarboxamide] | 0.000208 | < 0.838
Cc1cc(-c2ccn3nc(NC(=O)C4CC4)cc3c2)c(O[C@H]2C[C@H]3CC[C@@H](C2)N3C)cn1 [Example 138, N-(5-(2-methyl-5-(((1R,3r,5S)-8-methyl-8-azabicyclo[3.2.1]octan-3-yl)oxy)pyridin-4-yl)pyrazolo[1,5-a]pyridin-2-yl)cyclopropanecarboxamide] | 0.000854 | 12.9
Cc1cc(-c2ccn3nc(NC(=O)C4CC4)cc3c2)c(OC[C@@H]2CNCCO2)cn1 [Example 143, N-[5-[2-methyl-5-[[(2S)-morpholin-2-yl]methoxy]-4-pyridyl]pyrazolo[1,5-a]pyridin-2-yl]cyclopropanecarboxamide] | 0.000664 | 12.6
Cc1cc(-c2ccn3nc(NC(=O)C4CC4)cc3c2)c(OCC2(N)COC2)cn1 [Example 144, N-[5-[5-[(3-aminooxetan-3-yl)methoxy]-2-methyl-4-pyridyl]pyrazolo[1,5-a]pyridin-2-yl]cyclopropanecarboxamide] | 0.00212 | 36.4
Cc1cc(-c2ccn3nc(NC(=O)C4CC4)cc3c2)c(OCC2(N)CC(F)(F)C2)cn1 [Example 145, N-[5-[5-[(1-amino-3,3-difluoro-cyclobutyl)methoxy]-2-methyl-4-pyridyl]pyrazolo[1,5-a]pyridin-2-yl]cyclopropanecarboxamide] | 0.000642 | 16.4
Cc1cc(-c2ccn3nc(NC(=O)C4CC4)cc3c2)c(OC[C@H](N)C(C)(C)C)cn1 [Example 150, N-[5-[5-[(2R)-2-amino-3,3-dimethyl-butoxy]-2-methyl-4-pyridyl]pyrazolo[1,5-a]pyridin-2-yl]cyclopropanecarboxamide] | 0.00644 | 322

Continued, values first:

IC50 (SIK2 [1]) [µM] | IC50 (SIK2 [2]) [nM] | Compound
0.000779 | 13.8 | CN[C@H]1C[C@@H](COc2cnc(C#N)cc2-c2ccn3nc(NC(=O)C4CC4)cc3c2)C1 [Example 98, N-(5-(2-cyano-5-(((1s,3s)-3-(methylamino)cyclobutyl)methoxy)pyridin-4-yl)pyrazolo[1,5-a]pyridin-2-yl)cyclopropanecarboxamide]
0.00573 | 105 | CN1CC[C@@H](COc2ccc(C#N)cc2-c2ccn3nc(NC(=O)C4CC4)cc3c2)C1 [Example 100, N-[5-[5-cyano-2-[[(3R)-1-methylpyrrolidin-3-yl]methoxy]phenyl]pyrazolo[1,5-a]pyridin-2-yl]cyclopropanecarboxamide]
0.00527 | 204 | COCCN1CC[C@H](Oc2cnc(C#N)cc2-c2ccn3nc(NC(=O)C4CC4)cc3c2)C1 [Example 108, (S)—N-[5-[2-cyano-5-[(3S)-1-(2-methoxyethyl)pyrrolidin-3-yl]oxy-4-pyridyl]pyrazolo[1,5-a]pyridin-2-yl]cyclopropanecarboxamide]
0.00422 | 116 | N#Cc1cc(-c2ccn3nc(NC(=O)C4CC4)cc3c2)c(O[C@H]2CCN(Cc3ccccn3)C2)cn1 [Example 109, (S)—N-[5-[2-cyano-5-[(3S)-1-(2-pyridylmethyl)pyrrolidin-3-yl]oxy-4-pyridyl]pyrazolo[1,5-a]pyridin-2-yl]cyclopropanecarboxamide]
0.00055 | 2.85 | N#Cc1cc(-c2ccn3nc(NC(=O)C4CC4)cc3c2)c(O[C@@H]2CCN(CC(F)(F)F)C2)cn1 [Example 110, (R)—N-[5-[2-cyano-5-[(3R)-1-(2,2,2-trifluoroethyl)pyrrolidin-3-yl]oxy-4-pyridyl]pyrazolo[1,5-a]pyridin-2-yl]cyclopropanecarboxamide]
0.00261 | 47.9 | COCCN1CC[C@@H](Oc2cnc(C#N)cc2-c2ccn3nc(NC(=O)C4CC4)cc3c2)C1 [Example 111, (R)—N-[5-[2-cyano-5-[(3R)-1-(2-methoxyethyl)pyrrolidin-3-yl]oxy-4-pyridyl]pyrazolo[1,5-a]pyridin-2-yl]cyclopropanecarboxamide]
0.00356 | 81.5 | N#Cc1cc(-c2ccn3nc(NC(=O)C4CC4)cc3c2)c(O[C@@H]2CCN(Cc3ccccn3)C2)cn1 [Example 112, (R)—N-[5-[2-cyano-5-[(3R)-1-(2-pyridylmethyl)pyrrolidin-3-yl]oxy-4-pyridyl]pyrazolo[1,5-a]pyridin-2-yl]cyclopropanecarboxamide]
0.000393 | 2.27 | N#CCN1CC[C@@H](Oc2cnc(C#N)cc2-c2ccn3nc(NC(=O)C4CC4)cc3c2)C1 [Example 113, (R)—N-[5-[2-cyano-5-[(3R)-1-(cyanomethyl)pyrrolidin-3-yl]oxy-4-pyridyl]pyrazolo[1,5-a]pyridin-2-yl]cyclopropanecarboxamide]
0.000337 | 6.58 | N#CCN1CC[C@H](Oc2cnc(C#N)cc2-c2ccn3nc(NC(=O)C4CC4)cc3c2)C1 [Example 114, (S)—N-[5-[2-cyano-5-[(3S)-1-(cyanomethyl)pyrrolidin-3-yl]oxy-4-pyridyl]pyrazolo[1,5-a]pyridin-2-yl]cyclopropanecarboxamide]
0.0095 | 159 | Cc1cc(-c2ccn3nc(NC(=O)C4CC4)cc3c2)c(OC2CN(C)C2)cn1 [Example 115, N-(5-(2-methyl-5-((1-methylazetidin-3-yl)oxy)pyridin-4-yl)pyrazolo[1,5-a]pyridin-2-yl)cyclopropanecarboxamide]
0.00334 | 70 | Cc1cc(-c2ccn3nc(NC(=O)C4CC4)cc3c2)c(O[C@@H]2CCN(C)C2)cn1 [Example 137, N-[5-[2-methyl-5-[(3R)-1-methylpyrrolidin-3-yl]oxy-4-pyridyl]pyrazolo[1,5-a]pyridin-2-yl]cyclopropanecarboxamide]
0.0033 | 72.9 | Cc1cc(-c2ccn3nc(NC(=O)C4CC4)cc3c2)c(O[C@H]2CCN(C)C2)cn1 [Example 139, N-[5-[2-methyl-5-[(3S)-1-methylpyrrolidin-3-yl]oxy-4-pyridyl]pyrazolo[1,5-a]pyridin-2-yl]cyclopropanecarboxamide]
0.00436 | 58.3 | Cc1cc(-c2ccn3nc(NC(=O)C4CC4)cc3c2)c(OC[C@H]2CC[C@@H](O)CC2)cn1 [Example 148, cis-N-[5-[5-[(4-hydroxycyclohexyl)methoxy]-2-methyl-4-pyridyl]pyrazolo[1,5-a]pyridin-2-yl]cyclopropanecarboxamide]

Reference: patent US20240158392A1 (Janssen Biotech, Inc., priority 2021, published 2024)
